Assay results reported in patent US20100234442A1, “Compositions and Methods for Treatment and Prevention of Cardiovascular Disease” (Nucitec S.A. de C.V., priority 2009, published 2010).

Test system: hypercholesterolemic patients
Assay: 8-week, randomized, double-blind, active-controlled, parallel-group study of vascular markers in hypercholesterolemic patients
Assay type: in vivo, human
Procedure: This was a 8-week, randomized, double-blind, active-controlled, parallel-group study. All patients provided written, informed consent before the start of the study.
Patients, investigator staff, persons performing the assessment, and data analysts remained blinded to the identity of the treatment from the time of randomization until data base lock. Treatments were all identical in packaging, labeling, schedule of administration and appearance. Treatments were administered to patients via a single pill.
20 hypercholesterolemic patients, ≧45 years old, were compared in this study. Patients were classified into one of four groups, consisting of five patients in each group.
Group I was treated with a single daily dose of simvastatin alone (20 mg). Group II was treated with a single daily dose simvastatin (20 mg) and acetylsalicylic acid (75 mg). Group III was treated with a single daily dose of simvastatin (20 mg) and enalapril (10 mg). Group IV was treated with a single daily dose of simvastatin (20 mg), acetylsalicylic acid (75 mg), and enalapril (10 mg). All patients were treated for eight weeks.
The primary efficacy variable was the change from the baseline to the final assessment in vascular markers of LDL-Cholesterol (LDL-C), C Reactive Protein (CRP), Interleukin 6 (IL-6), Systolic Blood Pressure (SBP), and nitric oxide (NO).

[1] = change from baseline to final, eight weeks
[2] = final assessment after eight weeks, single daily oral dose

CCC(C)(C)C(=O)O[C@H]1C[C@@H](C)C=C2C=C[C@H](C)[C@H](CC[C@@H]3C[C@@H](O)CC(=O)O3)[C@H]21 [Simvastatin alone, simvastatin]
IL-6 Baseline (baseline, before treatment): 4.6 pg/mL | Nitric oxide Baseline (baseline, before treatment): 87 µmol/L | SBP Baseline (baseline, before treatment): 142 mmHg | LDL-C Baseline (baseline, before treatment, five patients per group): 159 mg/dL | CRP % Δ [1]: −18% | IL-6 % Δ [1]: −39% | LDL-C % Δ [1]: −38% | Nitric oxide % Δ [1]: −9% | SBP % Δ [1]: −0.8% | IL-6 Final [2]: 2.8 pg/mL | LDL-C Final [2]: 99 mg/dL | Nitric oxide Final [2]: 79 µmol/L | SBP Final [2]: 141 mmHg
